Data on seven compounds can be found in PubChem BioAssay (NCI).

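Interpolation was linear, between the two tested concentrations surrounding the appropriate level; five concentrations were tested over 48 hours in 96-well plates. GI50 = concentration required for 50% inhibition of growth. TGI denotes the concentration required for complete inhibition of growth.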 Where a SMILES comes first, the peptide text is derived from it. [ ]: non-standard residue; d: D form. The star is where a group is joined. ξ: configuration not given here. dIva = CC[C@@](C)(N)C(=O)O; Aib = CC(C)(N)C(=O)O; ξP = O=C(O)C1CCCN1; βAla = NCCC(=O)O; X5 = OCN*

What all share (assay): NCI tumour cell line growth inhibition, 48 h
The test system of assay [1] is HL-60(TB) leukemia.
Assay [2] has as its system HCC-2998 colon.
The subject of assay [3] is MCF7 breast.
Assay [4] has as its system NCI-H460 lung.
The test system of assay [5] is A498 renal.
Assay [6] has as its system OVCAR-8 ovarian.
Assay [7] relates to NCI-H522 lung.
In assay [8] the test system is NCI-H23 lung.
Assay [9] deals with UACC-62 melanoma.
The subject of assay [10] is SK-MEL-5 melanoma.

On to `O=C(N/N=C/c1cccc(O)c1)c1ccc(C(F)(F)F)nc1Nc1cccc(C(F)(F)F)c1`, for which the GI50 in [1] was 1560 nM; in assay [2], 1020 nM; in assay [3] it was 1370 nM; in assay [4] it was 1740 nM; in assay [5], 1590 nM; in assay [6], 2120 nM. Besides, the GI50 in assay [7] is 1670 nM; in assay [8], 1620 nM; in assay [9], 1810 nM; in assay [10], 1210 nM. Besides, the TGI in [1] was determined as 3450 nM; in [2], 3420 nM; in assay [3] it was 4080 nM; in [4] it was 4520 nM; in assay [5], 5650 nM; in assay [6], 11300 nM. The TGI in assay [7] turned out to be 6720 nM; in assay [8] it was 5070 nM; in assay [9] it was 4120 nM; in assay [10], 2440 nM.

In the case of `COc1cc(OC)c2c(c1Cl)O[C@]1(C2=O)C(OCc2ccccc2)=CC(=O)C[C@H]1C`, the GI50 in assay [1] was 531 nM; in assay [2], 1490 nM; in [3], 395 nM; in [4], 401 nM; in [5], 413 nM; in assay [6] it was 1020 nM. Besides, the GI50 in assay [7] was 694 nM; in [8] it was 1020 nM; in assay [9], 720 nM; in assay [10], 1150 nM. Also, the TGI in assay [1] turned out to be 3520 nM; in assay [2], 7030 nM; in assay [3], 25900 nM; in assay [4] it was 12600 nM; in [5], 5580 nM; in assay [6], 29400 nM. In addition, the TGI is 4660 nM in [7], 39500 nM in assay [8], 18600 nM in assay [9] and 11800 nM in assay [10].

Take `CN1C(=O)C(C)(C)Oc2c(-c3cn(C)c(=O)c4[nH]ccc34)cc(S(C)(=O)=O)cc21`: the GI50 in assay [1] was 281 nM; in assay [2], 1240 nM; in [3], 338 nM; in assay [4], 2290 nM; in assay [5] it was 1110 nM; in [6] it was 1810 nM. Moreover, the GI50 in [7] is 383 nM; in assay [8] it was 1710 nM; in assay [9] it was 390 nM; in assay [10], 1340 nM. In addition, the TGI in assay [1] is 847 nM; in [2], 2860 nM; in [3], greater than 100000 nM; in assay [4], greater than 100000 nM; in [5] it was 5980 nM; in [6], greater than 100000 nM. In addition, the TGI in assay [7] is 5000 nM; in assay [8], 18700 nM; in [9] it was 11800 nM; in [10] it was 3270 nM.

Turning to `CC[C@@](C)(NC(=O)[C@H](C)NC(=O)CCNC(=O)C(C)(C)NC(=O)[C@H](C)NC(=O)[C@@H]1CCCN1C(=O)[C@@](C)(CC)NC(=O)[C@H](Cc1ccccc1)NC(=O)C1CCCN1C(=O)C(C)(C)NC(=O)C1CCCN1C(=O)C(C)(C)NC(C)=O)C(=O)NCCC(=O)N[C@@H](CC(C)C)C(=O)NC(C)(C)C(=O)NCCC(=O)N[C@@H](CC(C)C)C(=O)NC(C)(C)C(=O)NC(C)(C)C(=O)N[C@@H](CC(C)C)C(=O)NCCC(=O)NCO` (stereo partly drawn) (Ac-[Aib][ξP][Aib][ξP]F[dIva]PA[Aib][βAla]A[dIva][βAla]L[Aib][βAla]L[Aib][Aib]L[βAla]-X5), the GI50 in assay [1] is 318 nM; in assay [2], 145 nM; in assay [3], 65.1 nM; in [4], 144 nM; in [5], 190 nM; in [6] it was 119 nM. For the same compound, the GI50 in assay [7] was 86.8 nM; in [8], 88 nM; in assay [9], 258 nM; in assay [10], 99.1 nM. In addition, the TGI in assay [1] came to 650 nM; in assay [2] it was 351 nM; in [3] it was 286 nM; in assay [4] it was 381 nM; in assay [5], 412 nM; in assay [6], 359 nM. Also, the TGI in assay [7] was 304 nM; in assay [8], 320 nM; in assay [9] it was 503 nM; in assay [10] it was 302 nM.

As for `COc1ccc2c(c1)O/C(=C\c1ccc([N+](=O)[O-])s1)C2=O`, the TGI was greater than 100000 nM in assay [1]; greater than 100000 nM in assay [2]; greater than 100000 nM in [3]; greater than 100000 nM in assay [4]; greater than 75700 nM in [5]; greater than 100000 nM in assay [6]. The TGI in assay [7] was found to be 738 nM; in assay [8], 5920 nM. For the same compound, the GI50 is 2910 nM in [2]; 621 nM in [3]; 2320 nM in [4]; greater than 27400 nM in assay [5]; 2190 nM in assay [6]; 241 nM in assay [7]. The GI50 in assay [8] was 1330 nM.

Turning to `CCCNC(=O)Nc1ccc2c(c1)Cc1cc(N(CCCl)CCCl)ccc1-2`, the TGI was greater than 100000 nM in assay [1]; 67600 nM in [2]; 77500 nM in [3]; greater than 100000 nM in assay [4]; 33400 nM in [5]; greater than 100000 nM in [6]. In addition, the TGI in [7] was 41000 nM; in assay [8], greater than 100000 nM; in assay [9], greater than 100000 nM; in assay [10], 33000 nM.

As for `O=C(Nc1ccc(N2CCNCC2)cn1)c1[nH]ncc1Nc1ncnc2sc3c(c12)CCC3`, the GI50 in assay [1] is 6280 nM; in assay [2] it was 14100 nM; in assay [3] it was 1680 nM; in assay [4], 1580 nM; in assay [5] it was 5060 nM; in assay [6] it was 2170 nM. The results for the GI50 in assay [7], in assay [8] and in assay [9] were 1920 nM, 2210 nM and 1980 nM, respectively. The TGI in [1] stood at 29800 nM; in [2], 36200 nM; in assay [3] it was 4200 nM; in [4], 3480 nM; in assay [5], 24600 nM; in [6], 5000 nM. For the same compound, the figures for the TGI in assay [7], in assay [8] and in assay [9] were 4820 nM, 6320 nM and 4200 nM, respectively.
